Results reported in patent US20160068514A1, “HALO AND TRIFLUOROMETHYL SUBSTITUTED OREXIN RECEPTOR ANTAGONISTS” (MERCK SHARP & DOHME CORP., priority 2013, published 2016).

How the values were obtained:
[1] = target: T1, human orexin-2 receptor (hOX2R) (Homo sapiens, UniProt O43614); assay: FLIPR Ca2+ Flux Assay, hOX2R; assay type: cell-based; conditions: CHO cells expressing hOX2R; agonist Ala-6,12 human orexin-A 70 pM
T1 construct: expressed in transfected cells; host or cells: Chinese hamster ovary (CHO) cells
T1 sequence (O43614 1-444): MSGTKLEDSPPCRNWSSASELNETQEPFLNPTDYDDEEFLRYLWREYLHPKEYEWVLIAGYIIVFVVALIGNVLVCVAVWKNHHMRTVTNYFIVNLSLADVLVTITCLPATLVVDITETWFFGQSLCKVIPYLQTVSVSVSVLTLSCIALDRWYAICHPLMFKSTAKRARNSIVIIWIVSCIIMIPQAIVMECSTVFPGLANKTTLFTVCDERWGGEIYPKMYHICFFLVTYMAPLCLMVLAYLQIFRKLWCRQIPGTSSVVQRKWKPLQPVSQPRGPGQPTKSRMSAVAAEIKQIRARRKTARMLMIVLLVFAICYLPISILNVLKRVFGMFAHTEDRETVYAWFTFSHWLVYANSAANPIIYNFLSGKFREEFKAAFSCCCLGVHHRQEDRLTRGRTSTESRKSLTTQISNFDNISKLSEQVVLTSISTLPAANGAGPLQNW
From the text: (§1) The utility of the compounds in accordance with the present invention as orexin receptor OX1R and/or OX2R antagonists may be readily determined without undue experimentation by methodology well known in the art, including the “FLIPR Ca^2+ Flux Assay” (Okumura et al., Biochem. Biophys. Res. Comm. 2001, 280:976-981). Briefly, for intracellular calcium measurements, Chinese hamster ovary (CHO) cells expressing the orexin-1 receptor (e.g., rat or human) or the orexin-2 receptor (e.g., rat or human), are grown in Iscove's modified DMEM containing 2 mM L-glutamine, […], 1% hypoxanthine-thymidine supplement, 100 U/ml penicillin, 100 μg/ml streptomycin and 10% heat-inactivated fetal calf serum (FCS). The cells are seeded at approximately 20,000 cells per well into 384-well clear bottom sterile plates coated with poly-D-lysine. The seeded plates are incubated overnight at 37° C. and 5% CO2. Human ala-6,12 orexin-A can be used as the agonist and prepared as a 1 mM stock solution in 1% bovine serum albumin (BSA) and diluted in assay buffer (HBSS containing 20 mM HEPES, 0.1% BSA and 2.5 mM probenecid, pH7.4) for use in the assay at a final concentration of 70 pM. Test compounds are prepared as 10 mM stock solution in DMSO, then diluted in 384-well plates, first in DMSO, then in assay buffer. On the day of the assay, cells are washed 3 times with 100 μl assay buffer and then incubated for 60 minutes (37° C., 5% CO2) in 60 μl assay buffer containing 1 μM Fluo-4AM ester, 0.02% pluronic acid, and 1% BSA. The dye loading solution is then aspirated and cells are washed 3 times with 100 μl assay buffer. 30 μl of that same buffer is left in each well. Within the Fluorescent Imaging Plate Reader (FLIPR, Molecular Devices), test compounds are added to the plate in a volume of 25 μl, incubated for 5 minutes, and then 25 μl of agonist is added. Fluorescence is measured for each well at 1 second intervals for 5 minutes, and the height of each fluorescence peak is compared to the height of the fluorescence peak induced by 70 pM of agonist ala-6,12 orexin-A with buffer in place of test compound. IC50 value for the test compound is determined to be the concentration of compound needed to inhibit 50% of the agonist response. Alternatively, compound potency can be assessed using a radioligand binding assay (described in Bergman et. al. Bioorg. Med. Chem. Lett. 2008, 18:1425-1430) in which the inhibition constant (Ki) is determined in membranes prepared from CHO cells expressing either the OX1 or OX2 receptor. The intrinsic orexin receptor antagonist activity of a compound of the present invention may be determined by these assays.
(§2) Chinese hamster ovary (CHO) cells expressing the human orexin-1 receptor (hOX1R) or the human orexin-2 receptor (hOX2R) were grown in Iscove's modified DMEM containing 2 mM L-glutamine, […], 1% hypoxanthine-thymidine supplement, 100 U/ml penicillin, 100 μg/ml streptomycin and 10% heat-inactivated fetal calf serum (FCS). The cells were seeded at −20,000 cells/well into Becton-Dickinson black 384-well clear bottom sterile plates coated with poly-D-lysine. All reagents were from GIBCO-Invitrogen Corp. The seeded plates were incubated overnight at 37° C. and 5% CO2. Ala-6,12 human orexin-A, used as the agonist, was prepared as a 1 mM stock solution in 1% bovine serum albumin (BSA) and diluted in assay buffer (HBSS containing 20 mM HEPES, 0.1% BSA and 2.5 mM probenecid, pH7.4) for use in the assay at a final concentration of 70 pM. Test compounds were prepared as 10 mM stock solution in DMSO, then diluted in 384-well plates, first in DMSO, then assay buffer.
(§3) On the day of the assay, cells were washed 3× with 100 μl assay buffer and then incubated for 60 minutes (37° C., 5% CO2) in 60 μl assay buffer containing 1 μM Fluo-4AM ester, 0.02% pluronic acid, and 1% BSA. The dye loading solution was then aspirated and cells were washed 3× with 100 μl assay buffer. 30 μl of that same buffer was left in each well. […]

[2] = target: T2, human orexin-1 receptor (hOX1R) (Homo sapiens, UniProt O43613); assay: FLIPR Ca2+ Flux Assay, hOX1R; assay type: cell-based; conditions: CHO cells expressing hOX1R; agonist Ala-6,12 human orexin-A 70 pM
T2 construct: expressed in transfected cells; host or cells: Chinese hamster ovary (CHO) cells
T2 sequence (O43613 1-425): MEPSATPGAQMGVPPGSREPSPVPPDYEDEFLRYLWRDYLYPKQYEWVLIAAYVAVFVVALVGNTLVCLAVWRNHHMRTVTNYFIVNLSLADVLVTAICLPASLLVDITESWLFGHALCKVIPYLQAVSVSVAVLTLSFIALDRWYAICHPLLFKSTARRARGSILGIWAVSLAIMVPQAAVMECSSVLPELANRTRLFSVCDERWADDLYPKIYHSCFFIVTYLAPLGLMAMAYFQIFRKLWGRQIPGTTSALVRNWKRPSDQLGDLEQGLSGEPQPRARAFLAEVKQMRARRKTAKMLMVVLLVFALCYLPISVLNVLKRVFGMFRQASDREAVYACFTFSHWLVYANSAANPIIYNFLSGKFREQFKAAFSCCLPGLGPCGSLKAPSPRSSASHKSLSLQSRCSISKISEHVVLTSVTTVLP
From the text: as §1, §2, §3

| SMILES | IC50 [1] [nM] | IC50 [2] [nM] |
| --- | --- | --- |
| C[C@@H]1CC[C@@H](Oc2cc(Br)ccn2)CN1C(=O)c1ccccc1-n1nccn1 [Example 17, 4-bromo-2-{[(3R,6R)-6-methyl-1-{[2-(2H-1,2,3-triazol-2-yl)phenyl]carbonyl}piperidin-3-yl]oxy}pyridine] | 3.8 | 179 |
| C[C@@H]1CC[C@@H](Oc2cc(F)ccn2)CN1C(=O)c1ccccc1-n1ncnn1 [Example 10, 4-fluoro-2-{[(3R,6R)-6-methyl-1-{[2-(2H-tetrazol-2-yl)phenyl]carbonyl}piperidin-3-yl]oxy}pyridine] | 55 | 3850 |
| C[C@@H]1CC[C@@H](Oc2cc(C(F)(F)F)ccn2)CN1C(=O)c1ccccc1-n1ncnn1 [Example 6, 2-{[(3R,6R)-6-Methyl-1-{[2-(2H-tetrazol-2-yl)phenyl]carbonyl}piperidin-3-yl]oxy}-4-(trifluoromethyl)pyridine] | 10 | 828 |
| C[C@@H]1CC[C@@H](Oc2cc(Cl)ccn2)CN1C(=O)c1ccccc1-n1ncnn1 [Example 11] | 10 | 917 |
| Cc1c(I)ccnc1O[C@@H]1CC[C@@H](C)N(C(=O)c2ccccc2-n2nccn2)C1 [Example 4, 4-iodo-3-methyl-2-{[(3R,6R)-6-methyl-1-{[2-(2H-1,2,3-triazol-2-yl)phenyl]carbonyl}piperidin-3-yl]oxy}pyridine] | 8.8 | 118 |
| COc1ccc(C(=O)N2C[C@H](Oc3cc(F)ccn3)CC[C@H]2C)c(-n2nccn2)n1 [Example 13, 3-({(2R,5R)-5-[(4-fluoropyridin-2-yl)oxy]-2-methylpiperidin-1-yl}carbonyl)-6-methoxy-2-(2H-1,2,3-triazol-2-yl)pyridine] | 467 |  |
| COc1ccc(C(=O)N2C[C@H](Oc3nccc(I)c3OC)CC[C@H]2C)c(-c2ncccn2)n1 [Example 14, 2-[3-({(2R,5R)-5-[(4-Iodo-3-methoxypyridin-2-yl)oxy]-2-methylpiperidin-1-yl}carbonyl)-6-methoxypyridin-2-yl]pyrimidine] | 78.7 |  |
| COc1ccc(C(=O)N2C[C@H](Oc3cc(Cl)ccn3)CC[C@H]2C)c(-n2nccn2)n1 [Example 7, 3-({(2R,5R)-5-[(4-chloropyridin-2-yl)oxy]-2-methylpiperidin-1-yl}carbonyl)-6-methoxy-2-(2H-1,2,3-triazol-2-yl)pyridine] | 85.7 |  |
| C[C@@H]1CC[C@@H](Oc2nccc(C(F)(F)F)c2F)CN1C(=O)c1ccccc1-n1nccn1 [Example 1, 3-Fluoro-2-{[(3R,6R)-6-methyl-1-{[2-(2H-1,2,3-triazol-2-yl)phenyl]carbonyl}piperidin-3-yl]oxy}-4-(trifluoromethyl)pyridine] | 38.5 | 839 |
| C[C@@H]1CC[C@@H](Oc2cc(C(F)(F)F)ccn2)CN1C(=O)c1ccccc1-n1nccn1 [Example 3, 2-{[(3R,6R)-6-methyl-1-{[2-(2H-1,2,3-triazol-2-yl)phenyl]carbonyl}piperidin-3-yl]oxy}-4-(trifluoromethyl)pyridine] | 17.8 | 377 |
| COc1ccc(C(=O)N2C[C@H](Oc3nccc(C(F)(F)F)c3F)CC[C@H]2C)c(-n2nccn2)n1 [Example 2, 3-fluoro-2-{[(3R,6R)-1-{[6-methoxy-2-(2H-1,2,3-triazol-2-yl)pyridin-3-yl]carbonyl}-6-methylpiperidin-3-yl]oxy}-4-(trifluoromethyl)pyridine] | 105 |  |
| C[C@@H]1CC[C@@H](Oc2cc(Br)ccn2)CN1C(=O)c1ccccc1-n1ncnn1 [Example 12, 4-bromo-2-{[(3R,6R)-6-methyl-1-{[2-(2H-tetrazol-2-yl)phenyl]carbonyl}piperidin-3-yl]oxy}pyridine] | 10 | 986 |
| C[C@@H]1CC[C@@H](Oc2cc(I)ccn2)CN1C(=O)c1ccccc1-n1nccn1 [Example 5, 4-iodo-2-{[(3R,6R)-6-methyl-1-{[2-(2H-1,2,3-triazol-2-yl)phenyl]carbonyl}piperidin-3-yl]oxy}pyridine] | 7.3 | 414 |
| C[C@@H]1CC[C@@H](Oc2cc(F)ccn2)CN1C(=O)c1ccccc1-n1nccn1 [Example 16, 4-fluoro-2-{[(3R,6R)-6-methyl-1-{[2-(2H-1,2,3-triazol-2-yl)phenyl]carbonyl}piperidin-3-yl]oxy}pyridine] | 34 | 2310 |
| C[C@@H]1CC[C@@H](Oc2cccc(F)c2)CN1C(=O)c1ccccc1-n1nccn1 [Example 18, (2R,5R)-5-(3-fluorophenoxy)-2-methyl-1-{[2-(2H-1,2,3-triazol-2-yl)phenyl]carbonyl}piperidine] | 132 |  |
| COc1ccc(C(=O)N2C[C@H](Oc3nccc(I)c3OC)CC[C@H]2C)c(-n2nccn2)n1 [Example 8, 4-iodo-3-methoxy-2-{[(3R,6R)-1-{[6-methoxy-2-(2H-1,2,3-triazol-2-yl)pyridin-3-yl]carbonyl}-6-methylpiperidin-3-yl]oxy}pyridine] | 49.3 | 2500 |
| COc1ccc(C(=O)N2C[C@H](Oc3cc(Br)ccn3)CC[C@H]2C)c(-n2nccn2)n1 [Example 9, 3-({(2R,5R)-5-[(4-bromopyridin-2-yl)oxy]-2-methylpiperidin-1-yl}carbonyl)-6-methoxy-2-(2H-1,2,3-triazol-2-yl)pyridine] | 36.3 |  |
| C[C@@H]1CC[C@@H](Oc2cc(Cl)ccn2)CN1C(=O)c1ccccc1-n1nccn1 [Example 15, 4-Chloro-2-{[(3R,6R)-6-methyl-1-{[2-(2H-1,2,3-triazol-2-yl)phenyl]carbonyl}piperidin-3-yl]oxy}pyridine] | 10.8 | 548 |
